# Where two headings read alike, the source gives them in different places.
# How the values were obtained:
# [1] = molecular target: IDH1-R132H recombinant protein (Homo sapiens (Human), UniProt O75874, R132H); experiment: IDH1-R132H enzymatic assay (inhibition of NADPH consumption, diaphorase/resazurin readout); type: biochemical; conditions: read-out: Enzyme IDH1 R132H IC50 (Range)
# Method in brief: (§1)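 Compound was preincubated 15 min at 25 °C with 30 nM IDH1-R132H or 10 nM IDH1-R132C in Tris pH 7.5 buffer with MgCl2, BSA and Triton X-100. Reaction with 2 mM α-ketoglutarate and 20 μM NADPH (solution concentrations) ran 45 min at 25 °C. Remaining NADPH was detected via diaphorase/resazurin fluorescence (ex 535/em 590 nm), and IC50 came from four-parameter fits.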
# [2] = molecular target: IDH1-R132C recombinant protein (Homo sapiens (Human), UniProt O75874, R132C); experiment: IDH1-R132C enzymatic assay (inhibition of NADPH consumption, diaphorase/resazurin readout); type: biochemical; conditions: read-out: Enzyme IDH1 R132C IC50 (Range)
# Chain of IDH1-R132C recombinant protein (O75874 whole entry R132C): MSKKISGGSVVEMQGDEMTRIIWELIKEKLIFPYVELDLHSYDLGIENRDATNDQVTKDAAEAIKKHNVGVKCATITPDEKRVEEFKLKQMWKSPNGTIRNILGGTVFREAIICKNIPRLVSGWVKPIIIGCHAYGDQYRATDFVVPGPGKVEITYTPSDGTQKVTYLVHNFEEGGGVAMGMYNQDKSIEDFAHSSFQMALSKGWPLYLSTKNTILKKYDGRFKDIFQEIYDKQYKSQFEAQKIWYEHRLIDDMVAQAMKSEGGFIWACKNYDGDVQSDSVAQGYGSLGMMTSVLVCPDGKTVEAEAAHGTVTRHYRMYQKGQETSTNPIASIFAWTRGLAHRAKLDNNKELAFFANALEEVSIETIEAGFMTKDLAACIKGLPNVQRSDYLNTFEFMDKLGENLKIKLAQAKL
# Method in brief: as §1
# [3] = system: HCT116 isogenic IDH1-R132H mutant cells; experiment: Cellular 2-HG assay using HCT116 mutant IDH1 cells (R132H), RapidFire mass spectrometry; type: cell-based; conditions: Homo sapiens, read-out: HCT116 IDH1 R132H IC50 (Range)
# Method: (§2) Example 106—Cellular 2-HG assay using HCT116 mutant IDH1 cells
# (§3) HCT116 isogenic IDH1-R132H and IDH1-R132C mutant cells were cultured in growth media (McCoy's 5 A, 10% fetal bovine serum, 1× antibiotic-antimycotic solution and 0.3 mg/mL G418) in 5% CO2 in an incubator at 37° C. To prepare the assay, cells were trypsinized and resuspended in assay media (McCoy's 5 A with no L-glutamine, 10% fetal bovine serum, 1× antibiotic-antimycotic solution and 0.3 mg/mL G418). An aliquot of 10,000 cells/100 μL was transferred to each well of a clear 96-well tissue culture plate. The cells were incubated in 5% CO2 at 37° C. in an incubator overnight to allow for proper cell attachment. An aliquot of 50 μL of compound containing assay media were then added to each well and the assay plate was kept in 5% CO2 at 37° C. in an incubator for 24 hours. The media was then removed from each well and 150 μL of a methanol/water mixture (80/20 v/v) was added to each well. The plates were kept at −80° C. freezer overnight to allow for complete cell lysis. An aliquot of 125 μL of extracted supernatant was analyzed by RapidFire high-throughout-mass spectrometry (Agilent) to determine the cellular 2-HG level. The IC50 of a given compound was calculated by fitting the dose response curve of cellular 2-HG inhibition at a given concentration with the four parameter logistic equation.
# [4] = system: HCT116 isogenic IDH1-R132C mutant cells; experiment: Cellular 2-HG assay using HCT116 mutant IDH1 cells (R132C), RapidFire mass spectrometry; type: cell-based; conditions: Homo sapiens, read-out: HCT116 IDH1 R132C IC50 (Range)
# Method: as §2, §3
# [5] = HCT-116, cellular 2-HG level, HCT116 IDH1-R132H cells, 24 hours
# [6] = HCT-116, cellular 2-HG level, HCT116 IDH1-R132C cells, 24 hours
# Chain of IDH1-R132H recombinant protein (O75874 whole entry R132H): as the sequence (O75874 whole entry R132C) above, with C132H counted along it
IC50 [1] [µM],IC50 [2] [µM],"IC50 [3, 5] [µM]","IC50 [4, 6] [µM]",SMILES,"IC50 ([3]; HCT-116, 24 h) [µM]","IC50 ([4]; HCT-116, 24 h) [µM]"
0.1 to 1,0.1 to 1,0.1 to 1,0.1 to 1,CC(Nc1nccc(N(C(C)C)S(C)(=O)=O)n1)c1cc2cc(Cl)ccc2[nH]c1=O (stereo not shown) [Compound I-20],,
< 0.1,0.1 to 1,< 0.1,< 0.1,"COC(=O)Nc1ccnc(N[C@@H](C)c2cc3cc(Cl)ccc3[nH]c2=O)n1 [Compound I-22, (S)-Methyl (2-((1-(6-chloro-2-oxo-1,2-dihydroquinolin-3-yl)ethyl)amino)pyrimidin-4-yl) carbamate]",,
< 0.1,0.1 to 1,0.1 to 1,0.1 to 1,"Cc1nnnn1-c1ccnc(N[C@@H](C)c2cc3cc(Cl)ccc3[nH]c2=O)n1 [Compound I-59, (S)-6-chloro-3-(1-((4-(5-methyl-1H-tetrazol-1-yl)pyrimidin-2-yl)amino)ethyl)quinolin-2(1H)-one]",,
< 0.1,0.1 to 1,< 0.1,0.1 to 1,Cc1cnccc1-c1ccnc(N[C@@H](C)c2cc3cc(Cl)ccc3[nH]c2=O)n1 [Compound I-96],,
< 0.1,< 0.1,< 0.1,0.1 to 1,CCC(=O)Nc1ccnc(N[C@@H](C)c2cc3cc(Cl)ccc3[nH]c2=O)n1 [Compound I-33],,
< 0.1,0.1 to 1,< 0.1,0.1 to 1,COc1cc2[nH]c(=O)c(C(C)Nc3nccc(N4CCOC4=O)n3)cc2cc1Cl (stereo not shown) [Compound I-146],,
0.1 to 1,0.1 to 1,0.1 to 1,0.1 to 1,"C[C@H](Nc1nccc(NC(=O)C2CC2)n1)c1cc2cc(Cl)c(F)cc2[nH]c1=O [Compound I-180, (S)—N-(2-((1-(6-chloro-7-fluoro-2-oxo-1,2-dihydroquinolin-3-yl)ethyl)amino)pyrimidin-4-yl)cyclopropanecarboxamide]",,
< 0.1,0.1 to 1,0.1 to 1,1 to 10,C[C@H](Nc1nccc(-c2cnsc2)n1)c1cc2cc(Cl)ccc2[nH]c1=O [Compound I-88],,
< 0.1,1 to 10,0.1 to 1,1 to 10,"C[C@H](Nc1ncc(C#N)c(O)n1)c1cc2cc(Cl)c(OCc3ccccn3)cc2[nH]c1=O [Compound I-152, (S)-2-((1-(6-chloro-2-oxo-7-(pyridin-2-ylmethoxy)-1,2-dihydroquinolin-3-yl)ethyl)amino)-4-hydroxypyrimidine-5-carbonitrile]",,
0.1 to 1,1 to 10,1 to 10,1 to 10,Cc1ncccc1-c1ccnc(N[C@@H](C)c2cc3cc(Cl)ccc3[nH]c2=O)n1 [Compound I-90],,
< 0.1,< 0.1,< 0.1,0.1 to 1,"C[C@H](Nc1nccc(N2CCOC2=O)n1)c1cc2cc(Cl)ccc2[nH]c1=O [Compound I-44, (S)-3-(2-((1-(6-Chloro-2-oxo-1,2-dihydroquinolin-3-yl)ethyl)amino)pyrimidin-4-yl)oxazolidin-2-one]",,
< 0.1,< 0.1,0.1 to 1,1 to 10,"C[C@H](Nc1nccc(-c2cnc3ccccn23)n1)c1cc2cc(Cl)ccc2[nH]c1=O [Compound I-63, (S)-6-chloro-3-(1-((4-(imidazo[1,2-a]pyridin-3-yl)pyrimidin-2-yl)amino)ethyl)quinolin-2(1H)-one]",,
< 0.1,< 0.1,0.1 to 1,0.1 to 1,C[C@H](Nc1nccc(-c2cncn2CC2CC2)n1)c1cc2cc(Cl)ccc2[nH]c1=O [Compound I-61],,
0.1 to 1,1 to 10,0.1 to 1,0.1 to 1,"C[C@H](Nc1nccc(-c2cnnn2C)n1)c1cc2cc(Cl)ccc2[nH]c1=O [Compound I-66, (S)-6-chloro-3-(1-((4-(1-methyl-1H-1,2,3-triazol-5-yl)pyrimidin-2-yl)amino)ethyl)quinolin-2(1H)-one]",,
< 0.1,0.1 to 1,0.1 to 1,0.1 to 1,"Cc1cccn1-c1ccnc(N[C@@H](C)c2cc3cc(Cl)ccc3[nH]c2=O)n1 [Compound I-51, (S)-6-Chloro-3-(1-((4-(2-methyl-1H-pyrrol-1-yl)pyrimidin-2-yl)amino)ethyl) quinolin-2(1H)-one]",,
< 0.1,< 0.1,0.1 to 1,0.1 to 1,C[C@H](Nc1nccc(NC(=O)C2CC2)n1)c1cc2cc(Cl)ccc2[nH]c1=O [Compound I-29],,
< 0.1,0.1 to 1,0.1 to 1,0.1 to 1,"C[C@H](Nc1nccc(C(N)=O)n1)c1cc2cc(Cl)ccc2[nH]c1=O [Compound I-114, (S)-2-((1-(6-chloro-2-oxo-1,2-dihydroquinolin-3-yl)ethyl)amino)pyrimidine-4-carboxamide]",,
0.1 to 1,1 to 10,0.1 to 1,0.1 to 1,"C[C@H](Nc1nccc(N2CCCS2(=O)=O)n1)c1cc2cc(Cl)ccc2[nH]c1=O [Compound I-12, (S)-6-Chloro-3-(1-((4-(1,1-dioxidoisothiazolidin-2-yl)pyrimidin-2-yl)amino)ethyl)quinolin-2(1H)-one]",,
0.1 to 1,1 to 10,1 to 10,1 to 10,COC(=O)c1ccnc(N[C@@H](C)c2cc3cc(Cl)ccc3[nH]c2=O)n1 [Compound I-129],,
< 0.1,< 0.1,< 0.1,< 0.1,"CC(=O)Nc1ccnc(N[C@@H](C)c2cc3cc(Cl)cc(F)c3[nH]c2=O)n1 [Compound I-160, (S)—N-(2-((1-(6-Chloro-8-fluoro-2-oxo-1,2-dihydroquinolin-3-yl)ethyl)amino)pyrimidin-4-yl)acetamide]",,
< 0.1,< 0.1,< 0.1,0.1 to 1,"COc1nc(N[C@@H](C)c2cc3cc(Cl)c(O[C@H](C)c4ccccn4)cc3[nH]c2=O)ncc1C#N [Compound I-158, 2-(((S)-1-(6-chloro-2-oxo-7-((R)-1-(pyridin-2-yl)ethoxy)-1,2-dihydroquinolin-3-yl)ethyl)amino)-4-methoxypyrimidine-5-carbonitrile]",,
< 0.1,0.1 to 1,0.1 to 1,0.1 to 1,C[C@H](Nc1nccc(-c2ccccc2)n1)c1cc2cc(Cl)ccc2[nH]c1=O [Compound I-101],,
0.1 to 1,1 to 10,0.1 to 1,1 to 10,"C[C@H](Nc1nccc(-n2cccc2C(F)(F)F)n1)c1cc2cc(Cl)ccc2[nH]c1=O [Compound I-65, (S)-6-Chloro-3-(1-((4-(2-(triflouromethyl)-1H-pyrrol-1-yl)pyrimidin-2-yl)amino)ethyl) quinolin-2(1H)-one]",,
0.1 to 1,0.1 to 1,0.1 to 1,0.1 to 1,C[C@H](Nc1nccc(-n2nnnc2C2CC2)n1)c1cc2cc(Cl)cnc2[nH]c1=O [Compound I-184],,
0.1 to 1,0.1 to 1,0.1 to 1,0.1 to 1,CC(C)Cn1cncc1-c1ccnc(N[C@@H](C)c2cc3cc(Cl)ccc3[nH]c2=O)n1 [Compound I-85],,

SMILES,IC50 [1] [µM],IC50 [2] [µM],"IC50 [3, 5] [µM]","IC50 [4, 6] [µM]","IC50 ([3]; HCT-116, 24 h) [µM]","IC50 ([4]; HCT-116, 24 h) [µM]"
"COc1cc2[nH]c(=O)c([C@H](C)Nc3ncc(C#N)c(OC)n3)cc2cc1Cl [Compound I-143, (S)-2-((1-(6-Chloro-7-methoxy-2-oxo-1,2-dihydroquinolin-3-yl)ethyl)amino)-4-methoxypyrimidine-5-carbonitrile]",< 0.1,< 0.1,,,< 0.1,< 0.1
"COc1nc(N[C@@H](C)c2cc3cc(Cl)ccc3[nH]c2=O)ncc1C#N [Compound I-36, (S)-2-((1-(6-Chloro-2-oxo-1,2-dihydroquinolin-3-yl)ethyl)amino)-4-methoxypyrimidine-5-carbonitrile]",< 0.1,0.1 to 1,,,< 0.1,0.1 to 1
COc1cc2[nH]c(=O)c(C(C)Nc3ncc(C#N)c(OC)n3)cc2cc1Cl (stereo not shown) [Compound I-145],< 0.1,< 0.1,,,< 0.1,0.1 to 1
